{
  "source": "patent US8377875B2",
  "about": "“Therapeutics based on tau/microtubule dynamics” (Ramot at Tel-Aviv University Ltd., priority 2007, dated 2013)",
  "key": {"[1]": {"tested_on": "tubulin tyrosination cycle in rat pheochromocytoma cells (PC12)", "assay": "Cell-based tubulin tyrosination cycle assay in PC12 cells (confocal microscopy, ELISA)", "settings": "2 hr", "excerpt": "Changes in the tubulin tyrosination cycle were used to study the effects of NAP on microtubule dynamics (Gozes and Littauer, Nature. 276:411-413 (1978)). This cycle includes the slow removal of the C-terminal tyrosine of microtubule alpha tubulin, resulting in Glu-tubulin and the fast re-addition of tyrosine (Tyr) to soluble alpha-tubulin in a reaction requiring ATP. […] A cell-based assay for anti-microtubule activity that relies on the properties above allows the identification of both microtubule-destabilizing and microtubule-stabilizing agents. The assay allows assessment of the relative degree of stable microtubule versus dynamic microtubules (Vassal et al., J Biomol Screen, 11: 377-389 (2006)) using confocal microscopy as well as quantitative Enzyme-Linked Immunosorbent Assay (ELISA).\nRat pheochromocytoma cells (PC12) were grown in Dulbecco's modified eagles medium (DMEM) supplemented with 5% fetal bovine serum and 10% donor horse serum 1% penicillin—streptomycin, 1% L-Glutamine (Beit Haemek, Israel) in an atmosphere of 5% CO2 and 95% air at 37° C. […] Cells were seeded on 96, 48 or 24 well plates in 100, 300 or 500 μl of medium volumes respectively and allowed to grow for 48 hr.\nIn short, medium was aspirated and cells were incubated for 3 min with 100, 300 or 500 μl warm MTSBT (Pipes pH 6.8 80 mM, EGTA 4 mM, MgCl2 1 mM, Triton X-100 0.5% v/v) buffer followed by 6 min with 100, 300 or 500 μl cold methanol (−20° C.). Blocking followed a re-hydration in cold TBST (NaCl 0.15 M, Tris-Cl pH 7.4, Triton X-100 0.1% v/v) followed by 5% non fat milk in TBST 10 min at room temp or −50 μg/ml of Goat IgG in AbDil [TBST+2% bovine serum albumin (Sigma, Rehovot Israel)] 10 min at room temp. For microtubule and nuclear staining, 50 μl (per well) of rat monocloncal antibodies detecting tyrosinated tubulin (YL1/2, Abcam, Cambridge, UK) and rabbit polyclonal antibodies detecting glutaminated tubulin (Abcam, Cambridge, UK) at 1:1000 dilution were added. After a 2 hr (37° C.) incubation the cells were washed twice with TBST or TBS and 50 μl per well of secondary goat anti-rat coupled by Cynine 3—Cy3 (1:1000), Cy2 goat anti rabbit (1:1000) (Jackson ImmunoResearch, West Grove, Pa., U.S.A), and Hoechst 33258 (Sigma) 1 μg/ml were added. Following one hour incubation at 37° C. and 3 washes in TBST or TBS, fluorescence was measured using Tecan Microplate fluorescent reader (Neoteck scientific instrumentation, Switzerland) infinite F200 and Magellan software version 6.3.\nFor visual inspection, cells were seeded on microscope cover slips, mounted on slides and inspected using confocal microscopy as before (Divinski et al. (2006)). […]"}, "[2]": {"tested_on": "microtubules (tubulin and tau)", "assay": "Transmission electron microscopy of microtubules from mixtures of tubulin, tau and NAP", "type": "biochemical", "protocol": "FIGS. 3A-E show electron microscopy studies were carried out on mixtures of tubulin, tau, and NAP. […] FIGS. 3A and 3C are 25,000× magnification; FIGS. 3B and 3D are 200,000× magnification. […] Additional electron microscopy studies were carried out on mixtures of NAP (1 pM, lanes 4,5,6. […]), tubulin 6 μM (lanes1,4, FIG. 3E) or 10 μM (lanes 2,3,5,6, FIG. 3E) and tau. Tubulin was obtained from Cytoskeleton (Denver, Colo., USA) and tau (0.7 μM) was purified from recombinant cDNA obtained from Professor Linda Amos (Kar et al., Embo J, 22: 70-77 (2003).). […] The box plot represents 3 different experiments (control vs. NAP-treated). Each experiment consists of either three or four repeats. P<0.001. The density of the microtubules was estimated by counting 20-23 fields in each of the experimental samples.\nTransmission electron microscopy was carried out to identify and quantitate microtubule size and appearance in the presence and absence of NAP (in the microtubule pellets described above). Grids were stained with […]."}, "beta III tubulin": {"molecular_target": "T1, beta III tubulin (Homo sapiens, UniProt Q13509)", "T1 construct": "purchased Cytoskeleton (Denver, Colo., USA)", "T1 sequence (Q13509 whole entry)": "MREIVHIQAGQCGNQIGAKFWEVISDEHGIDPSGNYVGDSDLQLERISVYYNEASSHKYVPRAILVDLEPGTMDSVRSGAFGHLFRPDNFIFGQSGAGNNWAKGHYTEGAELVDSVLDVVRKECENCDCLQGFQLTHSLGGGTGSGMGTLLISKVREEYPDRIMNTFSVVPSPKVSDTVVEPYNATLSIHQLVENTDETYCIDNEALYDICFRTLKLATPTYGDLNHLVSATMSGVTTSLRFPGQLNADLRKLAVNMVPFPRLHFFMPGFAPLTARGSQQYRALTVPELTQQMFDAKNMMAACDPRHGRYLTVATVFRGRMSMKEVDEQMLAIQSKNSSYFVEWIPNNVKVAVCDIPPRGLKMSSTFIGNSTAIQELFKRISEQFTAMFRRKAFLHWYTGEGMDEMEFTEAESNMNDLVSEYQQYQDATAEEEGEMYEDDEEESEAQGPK", "T1 sequence (Q71U36 whole entry partner)": "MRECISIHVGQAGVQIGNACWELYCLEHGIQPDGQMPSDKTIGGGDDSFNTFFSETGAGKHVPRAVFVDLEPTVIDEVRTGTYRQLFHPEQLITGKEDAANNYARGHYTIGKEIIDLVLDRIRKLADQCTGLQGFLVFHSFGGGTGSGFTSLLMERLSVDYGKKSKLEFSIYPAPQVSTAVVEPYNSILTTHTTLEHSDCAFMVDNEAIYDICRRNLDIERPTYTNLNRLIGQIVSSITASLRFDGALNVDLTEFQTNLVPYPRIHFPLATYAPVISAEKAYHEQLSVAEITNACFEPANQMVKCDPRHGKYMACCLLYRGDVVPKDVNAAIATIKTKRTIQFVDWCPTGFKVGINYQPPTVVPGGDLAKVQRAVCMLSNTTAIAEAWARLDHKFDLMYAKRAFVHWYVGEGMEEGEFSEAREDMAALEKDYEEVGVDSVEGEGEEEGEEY", "assay": "Microtubule pelleting assay, western blot with beta III tubulin antibodies", "type": "biochemical", "settings": "NAP 1 pM, tubulin 10 μM, tau 2.5 μM; vs absence of NAP", "protocol": "FIG. 7 illustrates the effect of NAP (1 pM) on beta III tubulin precipitation (10 μM) with tau (2.5 μM) during microtubule (MT) assembly. The experiment was carried out as in FIG. 5, except that beta III antibodies were used. S=supernatant; P=pellet. The reduction of beta III tubulin in the pellet was significant (P<0.05). Beta III tubulin is enriched in neurons (Banerjee et al., J. Biol. Chem. 265: 1794-1799 (1990); Joshi and Cleveland, Cell Motil. Cytoskeleton 16:159-163 (1990)).\nDensitometric scanning of the western blots (e.g. FIG. 7) including 8 independent experiments are depicted on the figures. S=supernatant; P=pellet; western blot anti beta III tubulin, 1:1, 400. The reduction reached significance (*P<0.05).\n(§1) Tubulin, tau and NAP were prepared as described in Example 1. The microtubule pelleting assay was also carried out as in Example 1.\nThe resulting pellet was subjected to 12.0% polyacrylamide gel containing SDS (Kar et al. (2003)). Gels were either stained for proteins (Coomassie Brilliant Blue) or subjected to western analysis to specifically identify and quantitate tubulin in the microtubule pellet. […]"}, "beta tubulin": {"tested_on": "beta tubulin", "assay": "Microtubule pelleting assay, western blot with TUB2.1 beta tubulin antibody", "type": "biochemical", "settings": "NAP 1 pM, tubulin 10 μM, tau ~2.5 μM; 6 independent experiments", "protocol": "FIG. 5 illustrates the effect of NAP on beta tubulin precipitation (10 μM) with tau (2.5 μM) during microtubule (MT) assembly. NAP (1 pM) incubation apparently reduces beta tubulin in the microtubule pellet. The monoclonal antibody used (TUB2.1) interacts specifically with beta tubulin species. Gozes and Barnstable, Proc Natl Acad Sci USA, 79: 2579-2583 (1982). Blots were performed as before (Divinski et al., J Neurochem, 98: 973-984 (2006)). S=supernatant; P=pellet.\nDensitometric scanning of the western blots (e.g. FIG. 5) including 6 independent experiments are depicted on the figure. S=supernatant; P=pellet; western blot antitubulin 2.1, 1:1, 400.\nas §1\nThe resulting pellet was subjected to 12.0% polyacrylamide gel containing SDS (Kar et al. (2003)). Gels were either stained for proteins (Coomassie Brilliant Blue) or subjected to western analysis to specifically identify and quantitate tubulin in the microtubule pellet. Three different antibodies were used, rabbit anti tubulin (Gozes et al. (1977)), mouse monoclonal antibodies that prefers neuronal beta tubulin species, TUB2.1 (Boss et al., Brain Res, 433:199-218 (1987); Gozes and Barnstable (1982)) and tubulin beta III (neuronal enriched) antibodies as before (Divinski et al. (2006)). […]"}, "tubulin [3]": {"tested_on": "tubulin", "assay": "Microtubule pelleting assay, western blot with polyclonal tubulin antibodies", "type": "biochemical", "settings": "NAP 1 pM, tubulin 10 μM, tau ~2.5 μM", "protocol": "FIG. 9 illustrates the effect of NAP on tubulin precipitation (10 μM) with tau (2.5 μM) during microtubule (MT) assembly. The experiment was carried out as in FIG. 5, except that polyclonal tubulin antibodies were used. (Gozes et al., FEBS Lett. 73(1):109-14 (1977)).\nDensitometric scanning of the western blots (e.g. FIG. 9) including 6 independent experiments are depicted on the figure. S=supernatant; P=pellet; western blot anti tubulin, 1:1, 400-2000.\nas §1\nThe resulting pellet was subjected to 12.0% polyacrylamide gel containing SDS (Kar et al. (2003)). Gels were either stained for proteins (Coomassie Brilliant Blue) or subjected to western analysis to specifically identify and quantitate tubulin in the microtubule pellet. Three different antibodies were used, rabbit anti tubulin (Gozes et al. (1977)), mouse monoclonal antibodies that prefers neuronal beta tubulin species, TUB2.1 (Boss et al., Brain Res, 433:199-218 (1987); Gozes and Barnstable (1982)) and tubulin beta III (neuronal enriched) antibodies as before (Divinski et al. (2006)). Western blotting was performed as before (Divinski et al. (2006))."}, "[4]": {"molecular_target": "T2, tau-three microtubule binding domain repeats (Homo sapiens, UniProt P10636)", "T2 construct": "made in house", "T2 sequence (P10636 1-410 isoform P10636-5)": "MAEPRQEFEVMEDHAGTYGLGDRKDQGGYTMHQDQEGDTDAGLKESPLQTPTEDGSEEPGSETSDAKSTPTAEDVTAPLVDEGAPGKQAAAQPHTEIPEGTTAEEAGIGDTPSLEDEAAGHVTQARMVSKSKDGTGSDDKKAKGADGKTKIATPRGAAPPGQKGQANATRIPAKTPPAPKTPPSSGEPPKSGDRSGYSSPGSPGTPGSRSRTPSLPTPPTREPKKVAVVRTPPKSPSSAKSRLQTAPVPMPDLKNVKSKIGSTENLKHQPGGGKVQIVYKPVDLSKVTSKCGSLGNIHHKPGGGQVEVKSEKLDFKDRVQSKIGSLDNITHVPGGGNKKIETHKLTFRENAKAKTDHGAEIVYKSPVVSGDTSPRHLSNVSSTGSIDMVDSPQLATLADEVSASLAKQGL", "assay": "Dot blot analysis of peptide binding to tau", "settings": "peptide 10^−3M spotted, 2 μM tau", "protocol": "For Dot Blot analysis, 5 μl of each sample [vasoactive intestinal peptide VIP (Dangoor et al., Regul Pept, 137: 42-49 (2006)); negative control and NAP 10^−3M) was applied onto the nitrocellulose membrane (Schleicher & Schuell, Dassel, Germany), and was left to dry (2 hr, room temperature). The membrane was further incubated with 2 μM tau-three microtubule binding domain repeats (1.5 hr, room temperature). The non-specific sites were blocked by soaking in a blocking solution (10 mM Tris, 6 mM NaCl, 0.05% Tween 20) that was supplemented with 5% low-fat milk (1 hr at room temperature). The membrane was incubated with primary antibody (tau5 antibody 1:1000), dissolved in 5% milk in blocking solution (12 hours at 4 C). The membrane was then washed three times with the blocking solution (3×10 min), incubated with secondary antibody conjugated with horseradish peroxidase (HRP) (1 hr at room temperature) and washed again three times with blocking solution (10 min×3). The membrane was incubated with ECL reagent (Western blotting detection system; Amersham Biosciences) for 1 min, covered and exposed Biomax Light Film (Kodak, Rochester, N.Y., USA). […]"}, "tau": {"molecular_target": "tau (Homo sapiens, UniProt P10636)", "sequence (P10636 1-441 isoform P10636-8)": "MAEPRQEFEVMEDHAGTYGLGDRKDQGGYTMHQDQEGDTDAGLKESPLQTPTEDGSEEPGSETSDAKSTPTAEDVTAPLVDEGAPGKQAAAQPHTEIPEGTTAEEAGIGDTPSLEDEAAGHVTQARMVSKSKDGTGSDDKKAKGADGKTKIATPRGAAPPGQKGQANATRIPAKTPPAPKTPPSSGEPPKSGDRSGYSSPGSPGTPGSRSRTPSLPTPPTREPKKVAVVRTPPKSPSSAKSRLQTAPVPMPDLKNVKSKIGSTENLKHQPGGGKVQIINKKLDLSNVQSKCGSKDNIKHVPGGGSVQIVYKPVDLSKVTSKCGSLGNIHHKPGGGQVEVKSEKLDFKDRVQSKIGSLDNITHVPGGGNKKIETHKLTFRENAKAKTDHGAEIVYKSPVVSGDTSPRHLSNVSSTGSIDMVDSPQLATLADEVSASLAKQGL", "assay": "Affinity chromatography on NAP-affinity column with tau-specific western blot", "type": "binding"}, "cell cultures": {"tested_on": "cell cultures", "settings": "cited from earlier work"}, "normal aging rats": {"tested_on": "normal aging rats", "settings": "intranasal administration; cited from earlier work"}, "ischemic injury": {"tested_on": "ischemic injury", "settings": "after ischemic injury; cited from earlier work"}, "[5]": {"tested_on": "closed head injury in mice", "settings": "cited from earlier work"}, "[6]": {"tested_on": "model of fetal alcohol syndrome", "settings": "in vivo, ip; cited from earlier work"}, "tau hyperphosphorylation": {"tested_on": "tau hyperphosphorylation", "settings": "animal models; cited from earlier work"}, "tubulin [7]": {"tested_on": "tubulin", "settings": "cited from earlier work"}, "microtubule formation": {"tested_on": "microtubule formation", "settings": "cited from earlier work"}, "NIH 3T3 fibroblasts": {"tested_on": "NIH 3T3 fibroblasts", "settings": "cited from earlier work"}, "[8]": {"tested_on": "MAP-2 expression in neuronal cells", "settings": "cited from earlier work"}, "[9]": {"settings": "in vivo; cited from earlier work"}, "tubulin [10]": {"tested_on": "tubulin", "assay": "Tubulin-NAP binding"}, "[11]": {"tested_on": "mixed neuroglial cultures from newborn rat cortex", "assay": "Neuroprotection against beta-amyloid 1-42 in mixed neuroglial cultures, MAP2 ELISA", "type": "cell-based", "settings": "0.25 μM beta-amyloid 1-42, 5 days, n=10 per data point"}},
  "note": "Ends that are not written are not given here.",
  "data": [
    {"compound": "CC(=O)O[C@H]1C(=O)[C@@]2(C)[C@H]([C@H](OC(=O)c3ccccc3)[C@]3(O)C[C@H](OC(=O)[C@H](O)[C@@H](NC(=O)c4ccccc4)c4ccccc4)C(C)=C1C3(C)C)[C@]1(OC(C)=O)CO[C@@H]1C[C@@H]2O", "note": "[paclitaxel, reference compound]", "values": [
      {"measurement": "detyrosinated tubulin", "setting": "[1]; paclitaxel 5 μM", "value": "significantly increased detyrosinated tubulin"}
    ]},
    {"compound": "Asn-Ala-Pro-Val-Ser-Ile-Pro-Gln [NAP]", "values": [
      {"measurement": "microtubule density (electron microscopy)", "setting": "[2]; NAP 1 pM, tubulin 6 or 10 μM, tau 0.7 μM, vs control w/o NAP", "value": "increased microtubule density"},
      {"measurement": "curves and microtubule length (electron microscopy)", "setting": "[2]; NAP-treated samples vs control w/o NAP", "value": "increases"},
      {"measurement": "decrease in tubulin beta III in the microtubule pellet", "setting": "beta III tubulin", "value": "approximately 2 fold"},
      {"measurement": "reduction of beta tubulin in the microtubule pellet (TUB2.1 antibody)", "setting": "beta tubulin", "value": "not significant"},
      {"measurement": "decrease of tubulin in the microtubule pellet (polyclonal anti-tubulin antibodies)", "setting": "tubulin [3]", "value": "no significant decrease"},
      {"measurement": "binding to tau (dot blot)", "setting": "[4]", "value": "can bind directly to tau"},
      {"measurement": "binding to tau (affinity chromatography)", "setting": "tau", "value": "binds to tau"},
      {"measurement": "dose response for activation of the tyrosination cycle (ELISA)", "setting": "[1]; 10^−19 M—10^−7M", "value": "biphasic dose response curve"},
      {"measurement": "activity on the tubulin tyrosination cycle", "setting": "[1]; NAP 10^−11M", "value": "not active"},
      {"measurement": "tyrosinated and detyrosinated alpha tubulin", "setting": "[1]; NAP 10^−15M", "value": "significantly increased tyrosinated and detyrosinated alpha tubulin"},
      {"measurement": "neuroprotective activity against a wide variety of toxins", "setting": "cell cultures", "value": "neuroprotective activity at femtomolar concentrations"},
      {"measurement": "performance in the Morris water maze", "setting": "normal aging rats", "value": "improved performance"},
      {"measurement": "infarct volume and motor function deficits", "setting": "ischemic injury", "value": "reduced infarct volume and motor function deficits"},
      {"measurement": "damage caused by closed head injury", "setting": "[5]", "value": "reducing damage"},
      {"measurement": "fetal death after intraperitoneal injection of alcohol", "setting": "[6]", "value": "inhibited"},
      {"measurement": "tau hyperphosphorylation", "setting": "tau hyperphosphorylation", "value": "protected against tau hyperphosphorylation"},
      {"measurement": "binding to tubulin", "setting": "tubulin [7]", "value": "binds tubulin"},
      {"measurement": "microtubule formation (turbidity)", "setting": "microtubule formation", "value": "stimulate microtubule formation"},
      {"measurement": "interaction with NIH 3T3 fibroblasts or other dividing cells", "setting": "NIH 3T3 fibroblasts", "value": "does not interact"},
      {"measurement": "MAP-2 expression", "setting": "[8]", "value": "increases MAP-2 expression"},
      {"measurement": "crossing of the blood-brain barrier", "setting": "[9]", "value": "can cross the blood-brain barrier"}
    ]},
    {"compound": "SALLRSIPA [ADNF-9]", "values": [
      {"measurement": "effect on tubulin-NAP binding", "setting": "tubulin [10]", "value": "diminish tubulin-NAP binding"}
    ]},
    {"compound": "TAPVPMPD [a NAP-like, tau-derived peptide]", "values": [
      {"measurement": "concentrations at which neuronal survival was enhanced (MAP2 staining)", "setting": "[11]", "value": "10^−19-10^−9 M"}
    ]},
    {"compound": "vasoactive intestinal peptide [VIP, reference compound]", "values": [
      {"measurement": "binding to tau (dot blot)", "setting": "[4]", "value": "does not interact"}
    ]}
  ]
}
